Assays:
NFATc1 [1] = test: NFATc1 RNA expression by RT-PCR; assay type: cell-based, mouse; details: 20 ng/ml M-CSF, 100 ng/ml RANKL, 20 μg/ml HBD3-C15, 24 hours; FIG. 1D
Description: (§1) In addition, expression of c-fos and NFATc1, which are well-known key transcription factors for osteoclast differentiation, was determined at protein and RNA levels.
(§2) Mouse-bone-marrow-derived macrophages were treated with 20 ng/ml of M-CSF and 100 ng/ml of RANKL, or 20 ng/ml of M-CSF, 100 ng/ml of RANKL and 20 μg/ml of HBD3-C15 for 24 hours, RNA was extracted, and the quantified RNA and random primers were reacted at 70° C. for 5 minutes and reacted in the presence of a reverse transcriptase, reverse transcription buffer and dNTPs at 42° C. for 1 hour. The result was amplified by 35 cycles using the synthesized cDNA as a template and using c-Fos and NFATc1-specific oligos as primers in a polymerase chain reaction machine.

mouse skulls [2] = test: Calvarial implantation model, bone resorption by RANKL; assay type: in vivo; details: 20 μg RANKL and 200 μg HBD3-C15 in collagen sheet, day 7
Description: In order to determine the inhibition of bone destruction by HBD3-C15 in vivo, a calvarial implantation model, a typical bone loss model, was used.
20 μg of RANKL, a key cytokine that can destroy bones, was soaked in a collagen sheet and was transplanted alone into mouse skulls, or 20 μg of RANKL and 200 μg of HBD3-C15 were soaked in a collagen sheet and then transplanted into mouse skulls. The mice were sacrificed on day 7 of transplantation, and the degree of skull bone destruction was analyzed by scanning via micro-CT.
After micro-CT analysis, TRAP staining was performed to determine the number of osteoclasts in the skull.

[3] = system: osteoclasts from mouse-derived bone marrow macrophages; test: Podosome belt formation in osteoclasts (confocal microscopy); assay type: cell-based; details: 20 ng/ml M-CSF, 100 ng/ml RANKL, 20 μg/ml HBD3-C15, 5 days; FIG. 3
Description: Thus, in order to determine whether or not the reduction of osteoclast differentiation by HBD3-C15 is affected by podosome belt formation in osteoclasts, mouse-derived bone marrow macrophages were differentiated on a cover glass. Mouse-bone-marrow-derived macrophages were treated with 20 ng/ml of M-CSF and 100 ng/ml of RANKL, or 20 ng/ml of M-CSF, 100 ng/ml of RANKL and 20 μg/ml of HBD3-C15, and cultured for 5 days. The cells were fixed with 4% paraformaldehyde, stained with Alexa-Fluor-488-conjugated-phalloidin, and washed and stained with Hoechst 33258. The degree of staining of cells was observed by confocal microscopy.

mouse skulls [4] = test: Mouse skull resorption induced by A.a.LPS; assay type: in vivo; details: transplantation of HBD3-C15; FIG. 6
Description: In addition, lipopolysaccharide of Aggregatibacter actinomycetemcomitans (A.a.LPS), a bacterium known to cause aggressive periodontitis accompanied with rapid alveolar bone loss, induced resorption of mouse skulls, and whether such resorption can be inhibited by HBD3-C15 was determined

[5] = system: mouse-bone-marrow-derived macrophages; test: Osteoclast differentiation by TRAP staining; assay type: cell-based; details: 100 ng/ml RANKL + 0.2, 2, or 20 μg/ml HBD3-C15, 3 days
Description: In order to evaluate the effect of HBD3-C15, a peptide fragment derived from human beta-defensin-3 (HBD3) on the differentiation of osteoclasts, which are bone destruction cells, mouse-bone-marrow-derived macrophages were used. The bone marrow-derived macrophages that were used were prepared by isolating bone marrow cells from the long bone of mice and culturing the same at 100% humidity and 37° C. in an alpha MEM containing 10% fetal bovine serum, 50 unit/ml of penicillin and 50 μg/ml of streptomycin along with 20 ng/ml of M-CSF for 5 days, while continuously feeding 5% carbon dioxide.
Mouse-bone-marrow-derived macrophages were seeded at 20,000 cells/well on a 96-well plate, treated with 100 ng/ml of receptor activator of nuclear factor-kappaB ligand (RANKL) alone, or a combination of 100 ng/ml of RANKL and 0.2, 2, or 20 μg/ml of HBD3-C15, and cultured for 3 days. In order to determine the degree of differentiation of osteoclasts, tartrate-resistant acid phosphatase (TRAP) staining was performed, and cells with three or more nuclei having osteoclast activity were counted and statistically analyzed.

[6] = system: osteoblast cell line MC3T3-E1 (Subclone 4); test: Osteoblast differentiation by alkaline phosphate staining; assay type: cell-based; details: differentiation medium (50 μg/ml ascorbic acid, 10 mM β-glycerophosphate) + 20 μg/ml HBD3-C15, 6 days; FIG. 7
Description: In order to evaluate the effect of HBD3-C15 on differentiation of osteoblasts, which are bone formation cells, the osteoblast cell line MC3T3-E1 (Subclone 4) was used. The cells were prepared by culturing in alpha-MEM medium without ascorbic acid containing 10% fetal bovine serum, 50 unit/ml of penicillin, and 50 μg/ml of streptomycin at 37° C. and 100% humidity while continuously supplying 5% carbon dioxide.
MC3T3-E1 cells were seeded at a density of 25,000 cells/well into a 48-well plate, then treated with a differentiation medium alone supplemented with 50 μg/ml of ascorbic acid and 10 mM of β-glycerophosphate, or in combination with 20 μg/ml of HBD3-C15, and cultured for 6 days. Alkaline phosphate staining was performed to determine the differentiation of osteoblasts and images were obtained through a camera mounted on a microscope.

NFATc1 [7] = test: NFATc1 protein expression by immunoblotting; assay type: cell-based, mouse; details: treated with HBD3-C15 for 48 hours; FIG. 1D
Description: (§3) In addition, in order to determine changes of the protein expression of c-Fos and NFATc1, the proteins were extracted from mouse-bone-marrow-derived macrophages, treated with HBD3-C15 for 48 hours, and 40 μg of the protein was transferred to the PVDF membrane through an SDS-PAGE gel. Then, immunoblotting was performed using c-Fos and NFATc1-specific antibodies.

[8] = system: osteoclasts cultured from mouse-bone-marrow-derived macrophages on dentin discs; test: Bone resorption activity of osteoclasts on dentin discs; assay type: cell-based; details: 20 ng/ml M-CSF, 100 ng/ml RANKL, 20 μg/ml HBD3-C15, 6 days, FIG. 2
Description: The osteoclasts were cultured in mouse-bone-marrow-derived macrophages on dentin discs based on the fact that osteoclasts perform all functions thereof in environments enabling bone absorption. Mouse-bone-marrow-derived macrophages were treated with 20 ng/ml of M-CSF and 100 ng/ml of RANKL, or with 20 ng/ml of M-CSF, 100 ng/ml of RANKL and 20 μg/ml of HBD3-C15, and then cultured for 6 days. The bone resorption area and bone resorption depth were imaged by confocal microscopy and total bone resorption depth and bone resorption area were measured by LSM Image Browser software.

c-Fos [9] = test: c-Fos RNA expression by RT-PCR; assay type: cell-based, mouse; details: 20 ng/ml M-CSF, 100 ng/ml RANKL, 20 μg/ml HBD3-C15, 24 hours; FIG. 1D
Description: as §1, §2

c-Fos [10] = test: c-Fos protein expression by immunoblotting; assay type: cell-based, mouse; details: treated with HBD3-C15 for 48 hours; FIG. 1D
Description: as §3

mature osteoclasts = test: Destruction of podosome belt of differentiated mature osteoclasts; assay type: cell-based, mouse; details: 20 μg/ml HBD3-C15 added on day 4 of differentiation, cultured 1 day; FIG. 4
Description: Thus, in order to determine whether or not HBD3-C15 can inhibit the activity of differentiated mature osteoclasts, mouse-bone-marrow-derived macrophages were treated with 20 ng/ml of M-CSF and 100 ng/ml of RANKL on a cover glass for 4 days to induce differentiation of osteoclasts. The osteoclasts were treated with 20 μg/ml of HBD3-C15 on day 4 of differentiation and cultured for 1 day. The cells were fixed with 4% paraformaldehyde, stained with Alexa-Fluor-488-conjugated phalloidin, washed and nuclei-stained with Hoechst 33258. The degree of staining of cells was observed by confocal microscopy.

Substance: G-K-C-S-T-R-G-R-K-C-C-R-R-K-K [HBD3-C15]
- expression of NFATc1 (RNA) increased by RANKL (NFATc1 [1]): reduced
- number of osteoclasts in the skull (TRAP staining) (mouse skulls [2]; FIG. 5C): significantly reduced
- skull absorbed by RANKL (micro-CT) (mouse skulls [2]; FIGS. 5A and 5B): significantly reduced
- podosome belt formation by RANKL [3]: no clear podosome belt
- number of osteoclasts (A.a.LPS model) (mouse skulls [4]): decreased
- skull resorption by A.a.LPS (mouse skulls [4]): significantly reduced
- number of TRAP positive cells increased due to RANKL ([5]; FIG. 1A): decreased in a concentration-dependent manner
- number of cells with three or more nuclei having osteoclast activity ([5]; FIG. 1B): statistically significantly decreased
- number of cells having ten or more nuclei ([5]; FIG. 1C): significantly decreased
- degree of differentiation of osteoblasts [6]: no difference in the degree of differentiation
- NFATc1 protein expression attributable to RANKL (NFATc1 [7]): inhibited an increase
- increase in bone resorption area attributable to RANKL [8]: significantly reduced
- increase in bone resorption depth attributable to RANKL [8]: significantly reduced
- expression of c-Fos (RNA) increased by RANKL (c-Fos [9]): reduced
- c-Fos protein expression attributable to RANKL (c-Fos [10]): inhibited an increase
- podosome belt of differentiated mature osteoclasts (mature osteoclasts): incomplete podosome belt

Reference: US20210147482A1, “PEPTIDE FOR INHIBITING BONE RESORPTION” (NIBEC CO., LTD., priority 2017, published 2021)
